Activity calls are given as the source filed them. The rule behind the calls is not given here.
target: Serine/threonine-protein phosphatase PP1-alpha catalytic subunit (Homo sapiens) (UniProt P62136); experiment: inhibition of PP1 activity on phosphorylase substrate – biochemical, radiolabel, 32P-phosphorylase substrate, single concentration, PP1 inhibitor probe project, late-stage follow-up (AID 652110); details: PP1 dephosphorylation of 32P-glycogen phosphorylase, at 50 µM, active compounds read high
Sequence (P62136 whole entry, looked up): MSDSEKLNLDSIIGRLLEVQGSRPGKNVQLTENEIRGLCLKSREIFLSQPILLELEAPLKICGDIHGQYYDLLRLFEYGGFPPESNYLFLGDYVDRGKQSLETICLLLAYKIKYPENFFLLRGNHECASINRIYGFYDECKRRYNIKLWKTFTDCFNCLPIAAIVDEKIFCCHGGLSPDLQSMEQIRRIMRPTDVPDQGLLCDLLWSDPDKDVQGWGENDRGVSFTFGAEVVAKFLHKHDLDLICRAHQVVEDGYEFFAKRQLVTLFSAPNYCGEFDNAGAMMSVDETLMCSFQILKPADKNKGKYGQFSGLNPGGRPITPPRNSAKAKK

SMILES | inhibition
CCOC(=O)c1cnc(-n2nc(C)cc2C)nc1NCCc1ccccc1 | 16.9% (inactive)
COc1ccccc1Sc1nc(-c2ccccn2)ncc1OC | -0.402% (inactive)
COc1cnc(-c2ccccn2)nc1Oc1cccc(Cl)c1 | 3.5% (inactive)
COc1ccc(Sc2nc(-c3ccccn3)ncc2OC)cc1 | -0.0224% (inactive)
Oc1cccc(/C=N/Nc2cc(N3CCCC3)nc(N3CCCC3)n2)c1 | 20.3% (inactive)
O=C(O)c1cc(-c2ccc(Cl)c(Cl)c2)n(-c2ccc(F)cc2)n1 | 8.75% (inactive)
N#Cc1c(-c2ccc(Cl)cc2)cc(-c2cccs2)nc1SCC(=O)O | 81.6%
O=C(O)c1cc(-c2ccc(Cl)c(Cl)c2)n(-c2ccccc2)n1 | 12.2% (inactive)
CC(C)(CS(=O)(=O)[O-])NC(=O)CC[N+](C)(C)CCO | 3.71% (inactive)
Cc1[nH]n(-c2ccccc2)c(=O)c1C(c1ccc([N+](=O)[O-])cc1)c1c(C)[nH]n(-c2ccccc2)c1=O | 48.3% (inactive)
O=C(NC1(O)C(=O)c2ccccc2C1=O)c1ccc(C(F)(F)F)cc1 | 39.2% (inactive)
COc1ccc(Cn2c(N)c(C(=O)NCc3ccco3)c3nc4ccccc4nc32)cc1OC | 8.99% (inactive)
CCOC(=O)c1sc(N2C(=O)C(O)=C(C(=O)c3ccco3)C2c2cccc([N+](=O)[O-])c2)nc1C (stereo not given) | 51.3% (inactive)
O=C(NC1(O)C(=O)c2ccccc2C1=O)c1c(Cl)cccc1Cl | 33.1% (inactive)
CCCCN(CC)c1nc(N)c2c(N)nc(OCC)cc2c1C#N | 17.2% (inactive)
O=C(NC1(O)C(=O)c2ccccc2C1=O)c1ccccc1 | 30.4% (inactive)
CCOC(=O)c1cnc(-n2nc(C)cc2C)nc1NC(C)c1ccccc1 (stereo not given) | 15.8% (inactive)
CCOC(=O)c1nn(-c2ccc(C)cc2)c(=O)c2c(N)scc12 | 12.3% (inactive)
COc1ccc(NC(=O)C2C3CCC(O3)C2C(=O)O)c(OC)c1 (stereo not given) | 73.9%
Nc1nc(-c2ccccn2)nc(N)c1Cc1ccc(Cl)cc1Cl | 22.1% (inactive)
c1ccc(Nc2nc(-c3ccccn3)cs2)cc1 | 13.2% (inactive)
COc1cnc(-c2ccccn2)nc1Sc1ccccc1Cl | 9.17% (inactive)

SMILES | inhibition
COc1ccc(Cl)cc1C(=O)Nc1cccc(-c2ccc3nncn3n2)c1 | 61.7% (inactive)
Cc1nnc(NC(=O)C2C3C=CC(O3)C2C(=O)O)s1 (stereo not given) | 56.1% (inactive)
CCn1c2ccccc2c2cc(NC(=O)COC(=O)c3ccc(NC(=O)CC#N)cc3)ccc21 | 74.6%
COc1ccc(OCCCC(=O)Nc2nc(-c3ccccn3)cs2)cc1 | 19.4% (inactive)
Cc1ccc(C(=O)NNc2cc(N3CCCC3)nc(N3CCCC3)n2)cc1 | 14.4% (inactive)
Cc1ccc(-n2nc(C(=O)O)cc2-c2ccc(Cl)cc2)cc1 | 5.4% (inactive)
COc1cnc(-c2ccccn2)nc1Sc1ccc(F)cc1 | 3.69% (inactive)
CCOC(=O)c1cnc(-n2nc(C)cc2C)nc1NC1CCCCC1 | 16.3% (inactive)
O=C1CCCC2=C1C1(O)C(=O)c3ccccc3C1(O)O2 (stereo not given) | 19.8% (inactive)
CN1CCN(C(c2ccccn2)c2cc(Cl)c3cccnc3c2O)CC1 (stereo not given) | 97%
CCOc1ccc(NC(=S)Nc2ccc3nsnc3c2)cc1 | 9.35% (inactive)
CCOC(=O)c1sc2nc3c(SCC(=O)O)cc(C(=O)c4cc(F)ccc4O)cn3c(=O)c2c1C | 92.2%
Oc1ccc(/C=N/Nc2cc(N3CCOCC3)nc(N3CCOCC3)n2)c(O)c1 | 20.3% (inactive)
COc1ccc2c(Cl)c(C(=O)N/N=C/c3ccc4c(c3)OCO4)sc2c1 | 33.4% (inactive)
COc1ccc(NC(=S)Nc2ccc3nsnc3c2)cc1 | 13.3% (inactive)
COc1cc(Br)c(C(=O)c2nccc3cc(OC)c(OC)cc23)cc1OC | 9.5% (inactive)
c1ccc(-c2nccc(-c3ccc(-n4cnc5ccccc54)cc3)n2)nc1 | 43% (inactive)
COc1cnc(-c2ccccn2)nc1Oc1cccc(C(F)(F)F)c1 | 0.507% (inactive)
COc1ccc(C(=O)c2nccc3cc(OC)c(OC)cc23)cc1OC | 9.58% (inactive)
CCCCn1c(NC(=O)c2ccco2)c(C(=O)OCC)c2nc3ccccc3nc21 | 29.8% (inactive)
COc1ccc(CN2C(=O)Cc3c2nc(N)c2c(N)nc(N4CCCCC4)c(C#N)c32)cc1 | 45.7% (inactive)
Oc1ccccc1/C=N/Nc1cc(N2CCCC2)nc(N2CCCC2)n1 | 17.2% (inactive)

SMILES | inhibition
COc1cnc(-c2ccccn2)nc1Sc1ccc(Cl)cc1 | 12.2% (inactive)
N#Cc1c(N2CCCC(O)C2)nc(N)c2c(N)nc3c(c12)CC(=O)N3C12CC3CC(CC(C3)C1)C2 (stereo not given) | 24.2% (inactive)
O=c1[nH]c(Nc2ccccc2)cc2ccccc12 | 19% (inactive)
O=C(O)c1cc(-c2ccc(Cl)cc2)n(-c2cccc(Cl)c2)n1 | 12% (inactive)
CC(=O)C(C(C)=O)C1(O)C(=O)c2ccccc2C1=O | 24.6% (inactive)
O=S(=O)(Cc1cc(NCc2ccccc2)nc(-c2ccccn2)n1)c1ccccc1 | 11.7% (inactive)
O=C(O)c1n[nH]nc1-c1ccccc1 | 22.4% (inactive)
CCOC(=O)c1cnc(-n2cc(C)cn2)nc1NCc1ccc2c(c1)OCO2 | 21.6% (inactive)
COc1cnc(-c2ccccn2)nc1Sc1ccccc1 | 0.752% (inactive)
CCOC(=O)c1cnc(-n2nc(C)cc2C)nc1NCc1ccccc1 | 7.11% (inactive)
O=C1Nc2ccccc2N2CCCC12 (stereo not given) | 9.82% (inactive)
Cc1cc(C)c(S(=O)(=O)/N=C2\C=C(Sc3ncn[nH]3)C(=O)c3ccccc32)cc1C | 30.5% (inactive)
Nc1cc2nsnc2cc1Br | 27.9% (inactive)
COc1cnc(-c2ccccn2)nc1Sc1ccc(C)cc1 | 9.79% (inactive)
COc1cnc(-c2ccccn2)nc1Sc1cccc(Cl)c1 | 23% (inactive)
O=C(Nc1nc(-c2ccccn2)cs1)C1CC(=O)N(c2ccc3c(c2)OCCO3)C1 (stereo not given) | 19.7% (inactive)
CCOC(=O)C1=C(C)OC2(O)c3ccccc3C(=O)C12O (stereo not given) | 17.4% (inactive)
CCCN(CC1CC1)c1nc(N)c2c(N)nc(OC)cc2c1C#N | 8.48% (inactive)
O=C(O)C1C2CCC(O2)C1C(=O)NC1CCCCC1 (stereo not given) | 66.1% (inactive)
Clc1ccc(-n2nnnc2-c2cnc(-c3ccccn3)nc2-c2cccs2)cc1 | 0.651% (inactive)
Cc1ccc(C(=O)NC2(O)C(=O)c3ccccc3C2=O)cc1C | 29.6% (inactive)
